Data on five molecules can be found in paper PMC6915887, “Inhibition of human carboxylesterases by ginsenosides: structure–activity relationships and inhibitory mechanism” (Chinese Medicine, 2019).

A word on the Ki: it is the dissociation constant of the complex between target and ligand, obtained from inhibition or displacement. By IC50 is commonly meant the concentration that inhibits the measured activity by half.

Structures are written as SMILES. Where only a bound is given, the exact number is not on record here.

Holding throughout (format): biochemical
Assay [1] concerns the target T1, hCES1A (Homo sapiens, UniProt P23141).
T1 construct: tissue Bioreclamation IVT lot no; X008067; host or cells: pooled human liver microsomes (50 donors)
T1 sequence (P23141 18-567): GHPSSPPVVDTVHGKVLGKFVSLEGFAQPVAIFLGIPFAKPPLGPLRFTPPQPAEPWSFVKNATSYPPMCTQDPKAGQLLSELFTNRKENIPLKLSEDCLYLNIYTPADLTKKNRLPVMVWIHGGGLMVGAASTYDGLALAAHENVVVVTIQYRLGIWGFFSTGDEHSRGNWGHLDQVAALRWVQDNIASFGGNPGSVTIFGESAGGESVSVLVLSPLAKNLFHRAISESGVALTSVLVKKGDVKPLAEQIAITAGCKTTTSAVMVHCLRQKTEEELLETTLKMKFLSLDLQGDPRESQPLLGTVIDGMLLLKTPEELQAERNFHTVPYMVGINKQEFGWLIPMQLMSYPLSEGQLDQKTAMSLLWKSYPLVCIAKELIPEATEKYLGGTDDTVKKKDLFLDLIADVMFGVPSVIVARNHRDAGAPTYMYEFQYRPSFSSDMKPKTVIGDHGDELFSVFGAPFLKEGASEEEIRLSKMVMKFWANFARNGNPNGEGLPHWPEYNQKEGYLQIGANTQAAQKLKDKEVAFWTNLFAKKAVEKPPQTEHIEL
The experiment in a line: Inhibition kinetic analyses of hCES1A-mediated DME hydrolysis in HLM. The protocol: According to the inhibition kinetics of both hCES1A and hCES2A, which were investigated by using varying concentrations of probe substrates in the presence of different concentrations of ginseng compounds (inhibitors), the inhibition constant (Ki) and inhibition kinetic types of ginsenosides were determined. The experimental details used to determine the inhibition constants have been reported previously.
All inhibition assays were performed in triplicate, nonlinear regression was used to determine the IC50 and Ki values with GraphPad Prism 7.0 software (GraphPad Software, Inc., La Jolla, USA).

The target of assay [2] is T2, hCES2A (Homo sapiens, UniProt O00748).
T2 construct: tissue Bioreclamation IVT lot no; X008067; host or cells: pooled human liver microsomes (50 donors)
T2 sequence (O00748 27-559): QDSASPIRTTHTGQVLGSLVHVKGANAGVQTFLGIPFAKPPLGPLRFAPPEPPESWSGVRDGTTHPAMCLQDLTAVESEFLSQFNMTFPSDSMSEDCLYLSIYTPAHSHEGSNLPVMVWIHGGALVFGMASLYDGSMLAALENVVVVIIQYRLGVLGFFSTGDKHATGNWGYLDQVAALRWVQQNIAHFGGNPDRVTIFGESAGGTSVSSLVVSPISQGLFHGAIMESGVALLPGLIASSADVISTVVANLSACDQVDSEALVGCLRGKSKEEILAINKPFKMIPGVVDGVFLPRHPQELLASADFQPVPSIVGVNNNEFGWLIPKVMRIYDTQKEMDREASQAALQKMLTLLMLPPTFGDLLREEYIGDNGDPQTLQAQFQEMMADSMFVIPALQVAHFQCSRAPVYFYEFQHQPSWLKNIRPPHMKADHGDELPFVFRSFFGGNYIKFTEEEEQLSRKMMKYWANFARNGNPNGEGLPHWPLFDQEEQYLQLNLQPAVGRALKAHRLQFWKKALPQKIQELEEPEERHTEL
Briefly: hCES2A inhibition assay (FD hydrolysis in HLM).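 For all read-outs here: HLM at 1 µg/mL in 0.1 M PBS pH 7.4, kinetic read at 37 °C every 30 s over 30 min, triplicate runs.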 Conditions: for inhibition of hCES2A-mediated FD hydrolysis (residual activity screen): HLM, ginsenoside 100 μM, result in words; for Specificity (hCES1A/hCES2A): ratio of IC50 values in HLM; for IC50: HLM as enzyme source, FD hydrolysis as probe reaction, read-out: IC50 (μM) hCES2A.
Protocol: The incubation system contains 2 μL HLM (1 μg/mL, final concentration), 194 μL PBS (0.1 M pH 7.4) and 2 μL corresponding inhibitor. […] The kinetic parameters were set at 30 reads, with an interval of 30 s (30 min) and shake during 5 s before the first read at 37 °C.

Assay [3] concerns the target T2, hCES2A. Briefly: Inhibition kinetic analyses of hCES2A-mediated FD hydrolysis in HLM.
The target of assay [4] is T1, hCES1A. The experiment in a line: hCES1A inhibition assay (DME hydrolysis in HLM).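 For all read-outs here: Read-out is D-luciferin luminescence formed from DME (3 µM) after 10 min at 37 °C in pH 6.5 PBS, HLM 1 µg/mL, inhibitor preincubated 3 min, oleanic acid as positive control.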 Conditions: for IC50: HLM as enzyme source, DME hydrolysis as probe reaction, read-out: IC50 (μM) hCES1A; for inhibition of hCES1A-mediated DME hydrolysis (residual activity screen): HLM, ginsenoside 100 μM, result in words.
Protocol: DME hydrolysis was used as the probe reaction to assay the inhibitory effects of 25 ginsenosides against hCES1A, oleanic acid was used as a positive control of inhibition assays [43]. The incubation system contains 91 μL PBS (0.1 M pH 6.5), 5 μL HLM (1 μg/mL, final concentration) and 2 μL corresponding inhibitor. After pre-incubating the reaction mixture for 3 min at 37 °C, the reaction was started by adding 2 μL DME (3 μM, final concentration) with a total volume of 100 μL, in which the final content of DMSO was limited to 2% (v/v). After incubating for 10 min at 37 °C in a shaking bath, LDR (50 μL, equal volume of the incubation mixture) was added to terminate the reaction. The luminescence signals of D-luciferin (the hydrolytic metabolite of DME) was measured (excitation wavelength 580 nm) by a multi-mode microplate reader (SpectraMax® iD3, Molecular Devices, Austria).

Consider `CC(C)=CCC[C@](C)(O)[C@H]1CC[C@]2(C)[C@@H]1CC[C@@H]1[C@@]3(C)CC[C@H](O)C(C)(C)[C@@H]3CC[C@]12C` [DM, Dammarenediol II], for which, in assay [1], the Inhibition mode result is “Competitive” and the Ki came to 2100 nM. In addition, in assay [2], the “inhibition of hCES2A-mediated FD hydrolysis (residual activity screen)” value is on record as “strong or moderate inhibition” and the “Specificity (hCES1A/hCES2A)” value came to 3.06. Further, the Inhibition mode entry in assay [3] was “Mixed”. Also, the IC50 in assay [4] was found to be 1.99 ± 0.21 µM.

As to `CC(C)=CCC[C@](C)(O[C@@H]1O[C@H](CO)[C@@H](O)[C@H](O)[C@H]1O)C1CC[C@]2(C)C1CCC1[C@@]3(C)CC[C@H](O)C(C)(C)C3CC[C@]12C` (stereo partly drawn) [DMG, 20S-O-β-(D-glucosyl)-dammarenediol II], in assay [1], the Inhibition mode result is on record as “Competitive” and the Ki was 2400 nM. Further, in assay [2], the IC50 was 1.06 ± 0.21 µM and the “inhibition of hCES2A-mediated FD hydrolysis (residual activity screen)” value was “strong inhibition”. Moreover, in assay [3], the Inhibition mode entry is “Mixed” and the affinity, expressed as Ki, was 2830 nM. Besides, in assay [4], the IC50 was determined as 1.76 ± 0.28 µM and the “inhibition of hCES1A-mediated DME hydrolysis (residual activity screen)” value is reported as “strong inhibition”.

Take `CC(C)=CCC[C@](C)(O)[C@H]1CC[C@]2(C)[C@@H]1[C@H](O)C[C@@H]1[C@@]3(C)CC[C@H](O)C(C)(C)[C@@H]3[C@@H](O)C[C@]12C` [PPT, protopanaxatriol]: in assay [2], the “inhibition of hCES2A-mediated FD hydrolysis (residual activity screen)” value is reported as “strong or moderate inhibition” and the “Specificity (hCES1A/hCES2A)” value was more than 116.28. Besides, the Inhibition mode entry in assay [3] was “Mixed”. The IC50 in assay [4] was more than 100 µM.

Take `CC(C)=CCC[C@](C)(O[C@@H]1O[C@H](CO)[C@@H](O)[C@H](O)[C@H]1O)[C@H]1CC[C@]2(C)[C@@H]1[C@H](O)C[C@@H]1[C@@]3(C)CC[C@H](O)C(C)(C)[C@@H]3[C@@H](O[C@@H]3O[C@H](CO)[C@@H](O)[C@H](O)[C@H]3O)C[C@]12C` [Rg1, ginsenoside Rg1]: in assay [2], the IC50 was more than 100 µM and the “inhibition of hCES2A-mediated FD hydrolysis (residual activity screen)” value is reported as “hardly inhibit”. In addition, in assay [4], the IC50 was more than 100 µM and the “inhibition of hCES1A-mediated DME hydrolysis (residual activity screen)” value was “hardly inhibit”.

`CC(C)=CCC[C@](C)(O)[C@H]1CC[C@]2(C)[C@@H]1[C@H](O)C[C@@H]1[C@@]3(C)CC[C@H](O)C(C)(C)[C@@H]3CC[C@]12C` [PPD, protopanaxadiol]: in assay [2], the “inhibition of hCES2A-mediated FD hydrolysis (residual activity screen)” value was “strong or moderate inhibition” and the “Specificity (hCES1A/hCES2A)” value is more than 75.18. The Inhibition mode entry in assay [3] is given as “Mixed”. The IC50 in assay [4] was more than 100 µM.
